From patent publication US12441725B2, “ISO-citrate dehydrogenase (IDH) inhibitor” (ZHEJIANG METON PHARMACEUTICAL CO., LTD, priority 2019, dated 2025)

Legend:
IDH1 R132H = target: T1, IDH1 R132H (Homo sapiens, UniProt O75874, R132H); experiment: Biochemical assay for IDH inhibition (NADPH fluorescence), mutant IDH1 R132H; conditions: 50 nM IDH1-R132H, 1 hour pre-incubation, in triplet
T1 construct: 6xHis
Outline: (§1)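 The read-out was the linear-phase loss of NADPH fluorescence (340/460 nm) over 15 min, background-subtracted and normalized to DMSO wells, giving triplicate IC50 values. Beforehand, R132H (50 nM) or R132C (25 nM) was exposed to compound for 1 h at room temperature with 1.33 mM α-KG at pH 7.5, and the reaction was triggered by adding an 80 μM NADPH solution.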

IDH1 R132C = target: T2, IDH1 R132C (Homo sapiens, UniProt O75874, R132C); experiment: Biochemical assay for IDH inhibition (NADPH fluorescence), mutant IDH1 R132C; conditions: 25 nM IDH1-R132C, 1 hour pre-incubation, in triplet
T2 construct: 6xHis
Outline: as §1

[1] = target: T3, IDH (endogenous IDH1 R132C) in HT1080 cell (Homo sapiens, UniProt O75874, R132C); experiment: Cell-based assay for IDH inhibition (decrease of D-2-HG) in HT1080 cells; conditions: human fibrosarcoma cell line HT1080, 16 hours treatment, D-2-HG by LC-MS, in triplet
T3 construct: which harbor endogenous heterozygous IDH1 R132C and R132H mutation respectively and accumulate D-2-HG
Outline: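 LC-MS/MS quantification of D-2-HG, normalized to glutamate, follows a 16 h compound exposure of IDH1 R132C HT1080 cells in DMEM with 10% FBS. Extraction uses pre-chilled 40% methanol/40% acetonitrile in water. Triplicate determinations; IC50 from D-2-HG levels relative to DMSO-treated cells.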

T2 sequence (O75874 whole entry R132C): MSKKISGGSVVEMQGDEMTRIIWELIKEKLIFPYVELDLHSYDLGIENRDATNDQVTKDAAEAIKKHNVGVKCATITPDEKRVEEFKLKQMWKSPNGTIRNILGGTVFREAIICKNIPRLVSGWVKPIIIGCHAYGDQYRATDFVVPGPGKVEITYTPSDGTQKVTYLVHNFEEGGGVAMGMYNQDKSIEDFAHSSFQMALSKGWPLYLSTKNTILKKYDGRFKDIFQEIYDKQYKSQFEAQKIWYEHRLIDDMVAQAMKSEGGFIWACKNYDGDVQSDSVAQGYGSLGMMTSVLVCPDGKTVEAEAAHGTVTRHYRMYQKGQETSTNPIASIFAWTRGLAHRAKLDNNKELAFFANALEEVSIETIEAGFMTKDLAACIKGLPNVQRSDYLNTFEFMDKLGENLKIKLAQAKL
T1 sequence (O75874 whole entry R132H): as the sequence (O75874 whole entry R132C) above, with C132H counted along it
T3 sequence (O75874 2-414 R132C): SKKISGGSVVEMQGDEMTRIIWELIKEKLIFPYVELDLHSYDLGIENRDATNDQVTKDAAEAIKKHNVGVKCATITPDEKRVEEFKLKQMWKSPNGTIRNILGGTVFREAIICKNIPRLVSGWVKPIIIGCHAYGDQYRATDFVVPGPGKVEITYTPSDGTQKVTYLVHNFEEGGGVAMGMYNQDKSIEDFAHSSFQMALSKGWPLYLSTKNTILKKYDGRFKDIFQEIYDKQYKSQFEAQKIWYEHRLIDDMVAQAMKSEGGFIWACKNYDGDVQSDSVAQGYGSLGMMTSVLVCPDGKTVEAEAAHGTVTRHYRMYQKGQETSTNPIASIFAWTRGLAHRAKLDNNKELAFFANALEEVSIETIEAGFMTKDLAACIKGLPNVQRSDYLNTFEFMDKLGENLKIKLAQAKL

SMILES: CCN1Cc2c(ccnc2N[C@@H](C)c2cc(F)c(-c3ccnc(CC4CC4)c3)cc2F)C1=O [Compound 91, (S)-4-((1-(4-(2-(cyclopropylmethyl)pyridin-4-yl)-2,5-difluorophenyl)ethyl)amino)-2-ethyl-2,3-dihydro-1H-pyrrolo[3,4-c]pyridin-1-one]
- IC50 (IDH1 R132H): 0.1 to 0.5 µM
- IC50 (IDH1 R132C): 0.5 to 1 µM
- IC50 [1]: 0.1 to 0.5 µM

SMILES: CCN1Cc2c(ccnc2N[C@@H](C)c2cc(F)c(-c3ccnc(-c4ccn(C)c4)c3)cc2F)C1=O [Compound 92, (S)-4-((1-(2,5-difluoro-4-(2-(1-methyl-1H-pyrrol-3-yl)pyridin-4-yl)phenyl)ethyl)amino)-2-ethyl-2,3-dihydro-1H-pyrrolo[3,4-c]pyridin-1-one]
- IC50 (IDH1 R132H): > 1 µM
- IC50 (IDH1 R132C): > 1 µM
- IC50 [1]: 0.1 to 0.5 µM

SMILES: CCN1Cc2c(ccnc2N[C@@H](C)c2cc(F)c(-c3ccnc(C4COC4)c3)cc2F)C1=O [Compound 93, (S)-4-((1-(2,5-difluoro-4-(2-(oxetan-3-yl)pyridin-4-yl)phenyl)ethyl)amino)-2-ethyl-2,3-dihydro-1H-pyrrolo[3,4-c]pyridin-1-one]
- IC50 (IDH1 R132H): > 1 µM
- IC50 (IDH1 R132C): > 1 µM
- IC50 [1]: > 1 µM

SMILES: CCN1Cc2c(ccnc2N[C@@H](C)c2cc(F)c(-c3ccnc(C4(O)COC4)c3)cc2F)C1=O [Compound 94, (S)-4-((1-(2,5-difluoro-4-(2-(3-hydroxyoxetan-3-yl)pyridin-4-yl)phenyl)ethyl)amino)-2-ethyl-2,3-dihydro-1H-pyrrolo[3,4-c]pyridin-1-one]
- IC50 (IDH1 R132H): > 1 µM
- IC50 (IDH1 R132C): > 1 µM
- IC50 [1]: > 1 µM

SMILES: CCN1Cc2c(ccnc2N[C@@H](C)c2cc(F)c(-c3ccnc(Cl)c3)cc2F)C1=O [Compound 95, (S)-4-((1-(4-(2-chloropyridin-4-yl)-2,5-difluorophenyl)ethyl)amino)-2-ethyl-2,3-dihydro-1H-pyrrolo[3,4-c]pyridin-1-one]
- IC50 (IDH1 R132H): > 1 µM
- IC50 (IDH1 R132C): > 1 µM
- IC50 [1]: 0.5 to 1 µM

SMILES: CCN1Cc2c(ccnc2N[C@@H](C)c2cc(F)c(-c3ccnc(-c4ccnc(Cl)c4)c3)cc2F)C1=O [Compound 96, (S)-4-((1-(4-(2′-chloro-[2,4′-bipyridin]-4-yl)-2,5-difluorophenyl)ethyl)amino)-2-ethyl-2,3-dihydro-1H-pyrrolo[3,4-c]pyridin-1-one]
- IC50 (IDH1 R132H): 0.1 to 0.5 µM
- IC50 (IDH1 R132C): 0.5 to 1 µM
- IC50 [1]: 0.1 to 0.5 µM

SMILES: CCN1Cc2c(ccnc2N[C@@H](C)c2cc(F)c(-c3ccnc(C4CC(F)(F)C4)c3)cc2F)C1=O [Compound 97, (S)-4-((1-(4-(2-(3,3-difluorocyclobutyl)pyridin-4-yl)-2,5-difluorophenyl)ethyl)amino)-2-ethyl-2,3-dihydro-1H-pyrrolo[3,4-c]pyridin-1-one]
- IC50 (IDH1 R132H): 0.1 to 0.5 µM
- IC50 (IDH1 R132C): 0.5 to 1 µM
- IC50 [1]: 0.1 to 0.5 µM

SMILES: CCN1Cc2c(ccnc2N[C@@H](C)c2cc(F)c(-c3ccnc(-c4ccccc4)c3)cc2F)C1=O [Compound 98, (S)-4-((1-(2,5-difluoro-4-(2-phenylpyridin-4-yl)phenyl)ethyl)amino)-2-ethyl-2,3-dihydro-1H-pyrrolo[3,4-c]pyridin-1-one]
- IC50 (IDH1 R132H): 0.5 to 1 µM
- IC50 (IDH1 R132C): > 1 µM
- IC50 [1]: 0.1 to 0.5 µM

SMILES: CCN1Cc2c(ccnc2N[C@@H](C)c2cc(F)c(-c3ccnc(-c4cccnc4)c3)cc2F)C1=O [Compound 99, (S)-4-((1-(4-([2,3′-bipyridin]-4-yl)-2,5-difluorophenyl)ethyl)amino)-2-ethyl-2,3-dihydro-1H-pyrrolo[3,4-c]pyridin-1-one]
- IC50 (IDH1 R132H): > 1 µM
- IC50 (IDH1 R132C): > 1 µM
- IC50 [1]: 0.5 to 1 µM

SMILES: CCN1Cc2c(ccnc2N[C@@H](C)c2cc(F)c(-c3ccnc(-c4cncc(Cl)c4)c3)cc2F)C1=O [Compound 100, (S)-4-((1-(4-(5′-chloro-[2,3′-bipyridin]-4-yl)-2,5-difluorophenyl)ethyl)amino)-2-ethyl-2,3-dihydro-1H-pyrrolo[3,4-c]pyridin-1-one]
- IC50 (IDH1 R132H): 0.1 to 0.5 µM
- IC50 (IDH1 R132C): 0.5 to 1 µM
- IC50 [1]: 0.1 to 0.5 µM

SMILES: CCN1Cc2c(ccnc2N[C@@H](C)c2cc(F)c(-c3ccnc(C4CCCC4)c3)cc2F)C1=O [Compound 101, (S)-4-((1-(4-(2-cyclopentylpyridin-4-yl)-2,5-difluorophenyl)ethyl)amino)-2-ethyl-2,3-dihydro-1H-pyrrolo[3,4-c]pyridin-1-one]
- IC50 (IDH1 R132H): < 0.1 µM
- IC50 (IDH1 R132C): 0.1 to 0.5 µM
- IC50 [1]: 0.1 to 0.5 µM

SMILES: CCN1Cc2c(ccnc2N[C@@H](C)c2cc(F)c(-c3ccnc(C(C)(C)F)c3)cc2F)C1=O [Compound 102, 4-[[(1S)-1-[2,5-difluoro-4-[2-(1-fluoro-1-methyl-ethyl)-4-pyridyl]phenyl]ethyl]amino]-2-ethyl-3H-pyrrolo[3,4-c]pyridin-1-one]
- IC50 (IDH1 R132H): < 0.1 µM
- IC50 (IDH1 R132C): 0.1 to 0.5 µM
- IC50 [1]: 0.1 to 0.5 µM

SMILES: CCN1Cc2c(ccnc2N[C@@H](C)c2cc(F)c(-c3ccnc(C(C)(C)O)c3)cc2F)C1=O [Compound 103, (S)-4-((1-(2,5-difluoro-4-(2-(2-hydroxypropan-2-yl)pyridin-4-yl)phenyl)ethyl)amino)-2-ethyl-2,3-dihydro-1H-pyrrolo[3,4-c]pyridin-1-one]
- IC50 (IDH1 R132H): > 1 µM
- IC50 (IDH1 R132C): > 1 µM
- IC50 [1]: > 1 µM

SMILES: CCN1Cc2c(ccnc2N[C@@H](C)c2cc(F)c(-c3cc(C(C)(C)C)ncc3F)cc2F)C1=O [Compound 104, (S)-4-((1-(4-(2-(tert-butyl)-5-fluoropyridin-4-yl)-2,5-difluorophenyl)ethyl)amino)-2-ethyl-2,3-dihydro-1H-pyrrolo[3,4-c]pyridin-1-one]
- IC50 (IDH1 R132H): < 0.1 µM
- IC50 (IDH1 R132C): < 0.1 µM
- IC50 [1]: < 0.1 µM

SMILES: CCN1Cc2c(ccnc2N[C@@H](C)c2cc(F)c(-c3ccnc(C(C)(C)C(F)(F)F)c3)cc2F)C1=O [Compound 105, (S)-4-((1-(2,5-difluoro-4-(2-(1,1,1-trifluoro-2-methylpropan-2-yl)pyridin-4-yl)phenyl)ethyl)amino)-2-ethyl-2,3-dihydro-1H-pyrrolo[3,4-c]pyridin-1-one]
- IC50 (IDH1 R132H): < 0.1 µM
- IC50 (IDH1 R132C): < 0.1 µM
- IC50 [1]: < 0.1 µM

SMILES: CCN1Cc2c(ccnc2N[C@@H](C)c2cc(F)c(-c3ccnc(C(C)(F)F)c3)cc2F)C1=O [Compound 106, (S)-4-((1-(4-(2-(1,1-difluoroethyl)pyridin-4-yl)-2,5-difluorophenyl)ethyl)amino)-2-ethyl-2,3-dihydro-1H-pyrrolo[3,4-c]pyridin-1-one]
- IC50 (IDH1 R132H): 0.1 to 0.5 µM
- IC50 (IDH1 R132C): 0.1 to 0.5 µM
- IC50 [1]: 0.1 to 0.5 µM

SMILES: CCN1Cc2c(ccnc2N[C@@H](C)c2cc(F)c(-c3ccnc(C(F)(F)C(F)(F)F)c3)cc2F)C1=O [Compound 107, (S)-4-((1-(2,5-difluoro-4-(2-(perfluoroethyl)pyridin-4-yl)phenyl)ethyl)amino)-2-ethyl-2,3-dihydro-1H-pyrrolo[3,4-c]pyridin-1-one]
- IC50 (IDH1 R132H): < 0.1 µM
- IC50 (IDH1 R132C): < 0.1 µM
- IC50 [1]: 0.1 to 0.5 µM

SMILES: CCN1Cc2c(ccnc2N[C@@H](C)c2cc(F)c(-c3cc(C(C)(C)C)ccn3)cc2F)C1=O [Compound 108, (S)-4-((1-(4-(4-(tert-butyl)pyridin-2-yl)-2,5-difluorophenyl)ethyl)amino)-2-ethyl-2,3-dihydro-1H-pyrrolo[3,4-c]pyridin-1-one]
- IC50 (IDH1 R132H): < 0.1 µM
- IC50 (IDH1 R132C): < 0.1 µM
- IC50 [1]: < 0.1 µM

SMILES: CCN1Cc2c(ccnc2N[C@@H](C)c2cc(F)c(-c3cncc(C(C)(C)C)c3)cc2F)C1=O [Compound 109, (S)-4-((1-(4-(5-(tert-butyl)pyridin-3-yl)-2,5-difluorophenyl)ethyl)amino)-2-ethyl-2,3-dihydro-1H-pyrrolo[3,4-c]pyridin-1-one]
- IC50 (IDH1 R132H): < 0.1 µM
- IC50 (IDH1 R132C): < 0.1 µM
- IC50 [1]: < 0.1 µM

SMILES: CCN1Cc2c(ccnc2N[C@@H](C)c2cc(F)c(-c3cc(C(C)(C)C)ncn3)cc2F)C1=O [Compound 110, (S)-4-((1-(4-(6-(tert-butyl)pyrimidin-4-yl)-2,5-difluorophenyl)ethyl)amino)-2-ethyl-2,3-dihydro-1H-pyrrolo[3,4-c]pyridin-1-one]
- IC50 (IDH1 R132H): < 0.1 µM
- IC50 (IDH1 R132C): < 0.1 µM
- IC50 [1]: < 0.1 µM

SMILES: CCN1Cc2c(ccnc2N[C@@H](C)c2cc(F)c(-c3ccnc(C(C)(C)C)n3)cc2F)C1=O [Compound 111, (S)-4-((1-(4-(2-(tert-butyl)pyrimidin-4-yl)-2,5-difluorophenyl)ethyl)amino)-2-ethyl-2,3-dihydro-1H-pyrrolo[3,4-c]pyridin-1-one]
- IC50 (IDH1 R132H): < 0.1 µM
- IC50 (IDH1 R132C): 0.1 to 0.5 µM
- IC50 [1]: 0.1 to 0.5 µM

SMILES: CCN1Cc2c(ccnc2N[C@@H](C)c2cc(F)c(-c3cc(C(C)(C)F)ccn3)cc2F)C1=O [Compound 112, (S)-4-((1-(2,5-difluoro-4-(4-(2-fluoropropan-2-yl)pyridin-2-yl)phenyl)ethyl)amino)-2-ethyl-2,3-dihydro-1H-pyrrolo[3,4-c]pyridin-1-one]
- IC50 (IDH1 R132H): < 0.1 µM
- IC50 (IDH1 R132C): < 0.1 µM
- IC50 [1]: < 0.1 µM

SMILES: CCN1Cc2c(ccnc2N[C@@H](C)c2cc(F)c(-c3cc(C(C)(C)F)cc(C)n3)cc2F)C1=O [Compound 113, (S)-4-((1-(2,5-difluoro-4-(4-(2-fluoropropan-2-yl)-6-methylpyridin-2-yl)phenyl)ethyl)amino)-2-ethyl-2,3-dihydro-1H-pyrrolo[3,4-c]pyridin-1-one]
- IC50 (IDH1 R132H): < 0.1 µM
- IC50 (IDH1 R132C): < 0.1 µM
- IC50 [1]: < 0.1 µM

SMILES: CCN1Cc2c(ccnc2N[C@@H](C)c2cc(F)c(-c3cc(C#N)ccn3)cc2F)C1=O [Compound 114, (S)-2-(4-(1-((2-ethyl-1-oxo-2,3-dihydro-1H-pyrrolo[3,4-c]pyridin-4-yl)amino)ethyl)-2,5-difluorophenyl)isonicotinonitrile]
- IC50 (IDH1 R132H): > 1 µM
- IC50 (IDH1 R132C): > 1 µM
- IC50 [1]: 0.5 to 1 µM
